Laboratory results from US20180244653A1, “SELECTIVE ALPHA-7 NICOTINIC RECEPTOR AGONISTS AND METHODS FOR MAKING AND USING THEM” (THE REGENTS OF THE UNIVERSITY OF CALIFORNIA, priority 2015, published 2018).
“And” between values parts separate entries of the source, which are not always exact repeats. Identical values can stand only once. “Also recorded” adds a separate entry of the source. Like-named read-outs stand apart in the source and are kept apart here.

Columns and labels:
α4β2-nAChRs = biological target: T1, α4β2-nAChRs (Homo sapiens, UniProt P17787+P43681); assay: Intact cell competitive radioligand binding assay ([3H]-(±)-epibatidine, SPA), LGIC-CNiFERs
T1 construct: expressed in transfected cells; host or cells: HEKtsA201 cells co-expressing TN-XXL

[1] = system: physiologically induced amnesia mice; assay: ORT with 24 h time delay (natural memory loss); format: in vivo; conditions: i.p.; for Discrimination index / cognition enhancement, ORT time delay vs control group: 24 h delay; for Minimum effective dose, RT^§: physiologically induced amnesia (memory retention) model, ICR mice
Procedure: Both compounds were further evaluated on a physiologic amnesic model by using ORT with 24 h time delay to induce natural memory loss in mice. The appropriate time delay causing amnesia was initially selected by varying delay times (24, 48, and 72 h) between sample and test phase that have identical and different objects, respectively. […] Therefore, 24 h was used as the time delay between sample and test phase.
FIG. 27 illustrates exploration time to familiar (F) and novel (N) objects in test phase of ORT following a time delay. Each mouse was allowed to explore an open field apparatus for 5 min in a habituation phase one day before a sample phase. In the test day, vehicle (SH) and test compounds IND8, QND8 and PNU were injected 1 h before measurement of exploration time. Each mouse was allowed to explore 2 identical objects in the sample phase for 5 min. On the next day (24 h), one of the objects was changed to a new one and the mouse was allowed to explore these objects for 5 min. The exploration time of these objects was recorded. Data are presented as means±SE, n=6-8 mice/group. **p<0.01, ***p<0.001 vs exploration time of familiar object, paired student's t-test.
The DI was calculated and compared with the control group to evaluate IND8, QND8, and PNU-282987 enhancement of cognitive function. Data are shown in FIG. 28, which illustrates discrimination index (TN−TF/TN+TF) of each compound in the test phase of ORT with time delay protocol. There was a significant difference in DI (F6,43=6.097, p<0.001, n=6-8 mice/group). **p<0.01, ***p<0.001 vs vehicle group (SH), one-way ANOVA with Fisher's LSD post hoc comparison.
The apparatus used in this experiment was the same as ORT test. This experiment was divided into 2 parts directed to dose finding and establishing mechanism of action.
For dose finding protocol, the mice were randomly divided into different treatment groups, a control group receiving a vehicle and tested groups receiving PNU-282987 at 3, 10 mg/kg, and IND8, QND8 for 10, 25 μmol/kg, single dose. They were allowed to freely explore the open field apparatus for 5 min for habituation in a day before the experiment (day 1). On the test day (day 2), the test compound was injected 1 h before the sample phase. In this phase, mice were placed in the apparatus to explore two identical objects. On the next day (day 3), one object was changed to a new one and mice were allowed to explore these objects for 5 min in the test phase. For proving cognitive enhancement mediated through α7-nAChRs, the protocol was the same as mentioned above except MLA (3 mg/kg), selective α7-nAChR antagonist, was injected 5 min before test compounds in the sample phase (day 2) to block the cognitive enhancement effect from test compounds. The dose of test compounds is selected from the effective dose from the former experiment. The exploration time of each object was recorded if the nose of mouse came within 3 cm or touched the objects. The discrimination index (DI) was calculated by using (TN−TF)/(TN+TF); TN and TF represented exploration time of new and familiar objects, respectively.

[2] = biological target: α7/5HT3A chimera receptor (hα7/m5HT3A), used for α7-nAChRs (UniProt P23979+P36544, M226I/T225I); assay: Intact cell competitive radioligand binding assay ([3H]-(±)-epibatidine, SPA), LGIC-CNiFERs; conditions: read-out: Kd ± SD, α7-nAChRs; >10 = did not pass initial screen at 10 μM
[3] = >10 = did not pass initial screen at 10 μM, read-out: Kd ± SD, α4β2

SMILES | Initial screening for binding to α4β2-nAChRs (α4β2-nAChRs; 10 μM, more than 50% radioligand displacement) | Kd (α4β2-nAChRs; [3]) | Discrimination index / cognition enhancement, ORT time delay vs control group [1] | Minimum effective dose, RT^§ [1] | Kd [2] | Kd (α4β2-nAChRs)
c1cc2cc(-c3cn(C4CN5CCC4CC5)nn3)ccc2[nH]1 (stereo not shown) [IND8, 5-((Quinuclid-3-yl)-1H-1,2,3-triazol-4-yl)-1H-indole] | binds to α4β2-nAChRs | 0.75 µM | able to enhance cognition; also recorded: significantly higher than that of control group | 10 µmol/kg | 0.12 µM | 
O=C(N[C@H]1CN2CCC1CC2)c1ccc(Cl)cc1 [PNU-282987, reference compound] |  |  | able to enhance cognition; also recorded: significantly higher than that of control group | 10 µmol/kg | 0.27 ± 0.14 µM | > 10 µM
Oc1ccc(-c2cn(C3CN4CCC3CC4)nn2)cc1 (stereo not shown) [QND8, 3-(4-hydroxyphenyl-1,2,3-triazol-1-yl) quinuclidine] |  | > 10 µM | able to enhance cognition; also recorded: significantly higher than that of control group | 10 µmol/kg | 0.08 µM and 0.081 µM | 
